# Test results published in US12631620B2, “Methods of generating organoids for high throughput screening of drugs” (Yissum Research Development Company of the Hebrew …, priority 2019, dated 2026).
# Structures can show the parent of a compound that is named as a salt. Numbered stars: 1 amine (or outer) side, 2 acyl side, 3 side chain; on linkers, the order of the positions; unused ones are H or OH. Bridge positions count the residues as written; N and C are the ends. Square brackets hold non-standard residues; d marks the D form. Peptide text beside a SMILES is read from it. I, II: the chains in the order shown. Actinocin(9to1) = Cc1c2oc3c(C)ccc(C(=O)[*:1])c3nc-2c(C(=O)[*:2])c(N)c1=O; NMeV = CN[C@H](C(=O)O)C(C)C; Sar = CNCC(=O)O
# Test system: U87-MG spheroids
# Assay: High throughput kinetic oxygen screen of FDA-approved anticancer drugs on U87-MG micro-tumors with embedded oxygen sensors, 384-well plate
# Format: cell-based, human
# Settings: 5 μM; U87-MG cells embedded in collagen gel or basement membrane gel
# Description: In general, cells were kept under standard conditions in a humidified incubator at 37° C., under 5% CO2. U87-MG cells (obtained from the American Type Culture Collection (ATCC)) were cultured in Eagle's Minimum Essential Medium (EMEM) (ATCC® 30-2003™) supplemented with 15% (volume/volume) fetal bovine serum (FCS), 100 U/mL penicillin, and 100 μg/mL streptomycin (Sigma-Aldrich). Medium was changed every 2 days and cells were split every 5 days. Patient's specific glioblastoma derived cells (obtained from Cleveland clinic) were cultured in Neurobasal™ Medium (Trademark Serial number: 77137832) minus phenol red (Thermo-Fischer Scientific) supplemented with 1× (volume/volume) B27 minus Vitamin A (Thermo-Fischer Scientific), 10 ng/ml basic fibroblast growth factor (bFGF) 10 ng/ml EGF (epidermal growth factor) (PEPROTECH), 100 U/mL penicillin, 100 μg/mL streptomycin (Sigma-Aldrich) and L-Alanyl-L-Glutamine (Biological Industries). Medium was changed every 3 days and cells were split every 2-3 weeks. Rat retinal capillary endothelial cells (RCECs) were cultured in EGM™-2 Endothelial Cell Growth Medium-2 BulletKit™ (Lonza). Medium was changed every 3 days and cells were split every 6 days.
# For tumor organoid formation, cancer cells were cultured to reach the adequate number needed for a 384 well plate. Cells were trypsinized, counted, and centrifuged at 300 g for 5 minutes at 4° C. The pellet was then mixed with 5 mg CPOx-50-RuP oxygen-sensing beads (Colibri Photonics) and resuspended in 800 μl of ice-cold solution of collagen type I (BD Biosciences) or Matrigel® Basement Membrane Matrix, Growth Factor Reduced (GFR) (Corning) for a final seeding density of 25-50×10^6 cells/mL. In some cases, endothelial cells (RCECs) are used in the assembly of the tumor spheroids by mixing them with same or double the number of tumor cells (i.e. 1:1 or 1:2 ratios) before centrifugation. The 800 μl mix was then equally distributed into a PCR strip (100 μl/tube) and passed to a Biomek i5 liquid handling workstation (Beckman Coulter) for the formation of uniformly-sized organoid in 384-well plate. The plate was then incubated for 30 minutes at 37° C., and the medium was replaced using the liquid handing workstation. Medium was changed every two days for 4 days before adding the drugs (5 μM of NIH chemotherapeutic drugs in triplicates per drug).
# On the day of measurement, medium was changed 2-12 hours before drug induction, based on the oxygen consumption of the microtissue (e.g., U87-MG spheroids are given 6 hours after media change before drugs are induced).
# After applying the drugs, the plate was placed on the DynamiX bioanalyzer (Tissue Dynamics). Organoids positions were detected optically. Oxygen content was monitored at a predetermined rate of 1 to 10 seconds of measurement at each location (e.g. Matrigel®/U87-MG spheroids treated with a set of FDA-approved anticancer drugs to enable cancer research was measured via phosphorescence for 4 seconds/well). Each cycle takes between 10-120 minutes, dependent on sampling rate and well number (e.g., Matrigel®/U87-MG spheroids 384 well at a sampling rate of 4 measurements/well take about 60 minutes for each cycle). […]
# Further validation was usually done by multiple independent repeats (e.g. Matrigel®/U87-MG spheroids treated with a set of FDA-approved anticancer drugs to enable cancer research [AOD IX] were assessed in 3 independent experiments). […]
smiles,measurement,value
"Cc1c2oc3c(C)ccc(C(=O)N[C@@H]4C(=O)N[C@H](C(C)C)C(=O)N5CCC[C@H]5C(=O)N(C)CC(=O)N(C)[C@@H](C(C)C)C(=O)O[C@@H]4C)c3nc-2c(C(=O)N[C@@H]2C(=O)N[C@H](C(C)C)C(=O)N3CCC[C@H]3C(=O)N(C)CC(=O)N(C)[C@@H](C(C)C)C(=O)O[C@@H]2C)c(N)c1=O [Dactinomycin] (I: T[dV]P[Sar][NMeV] / II: T[dV]P[Sar][NMeV]; ester I:1-I:C, II:1-II:C; linker I:N-II:N via Actinocin(9to1))","type of response in kinetic oxygen measurement (positive, false negative, false positive)",false positive
COc1cccc2c1C(=O)c1c(O)c3c(c(O)c1C2=O)C[C@@](O)(C(C)=O)C[C@@H]3O[C@H]1C[C@H](N)[C@H](O)[C@H](C)O1 [Daunorubicin hydrochloride],"type of response in kinetic oxygen measurement (positive, false negative, false positive)",false negative
CC(C)C[C@H](NC(=O)[C@H](Cc1ccccc1)NC(=O)c1cnccn1)B(O)O [Bortezomib],"type of response in kinetic oxygen measurement (positive, false negative, false positive)",positive
Cc1c(C(=O)Nc2ccc(N3C[C@@H](C)O[C@@H](C)C3)nc2)cccc1-c1ccc(OC(F)(F)F)cc1 [Erismodegib],"type of response in kinetic oxygen measurement (positive, false negative, false positive)",false positive
COC(=O)C[C@](O)(CCCC(C)(C)O)C(=O)O[C@@H]1C(OC)=C[C@]23CCCN2CCc2cc4c(cc2[C@H]13)OCO4 [Omacetaxine mepesuccinate],"type of response in kinetic oxygen measurement (positive, false negative, false positive)",positive
